# Laboratory results taken from article PMC3899824 (Investigational new drugs, 2013).
# Where two headings read alike, the source gives them in different places. *: point of attachment. Cbz = O=C(OCc1ccccc1)*; CH2F = FC*
# Legend:
# tubulin = test: Cell-free tubulin polymerization assay; assay type: biochemical; details: 60m at 340 nm
# [1] = test system: 8226/S multiple myeloma cells; test: Apoptosis by AnnexinV/PI flow cytometry, 8226/S; assay type: cell-based, human
# [2] = test system: MM.1S multiple myeloma cells; test: Apoptosis by AnnexinV/PI flow cytometry, MM.1S; assay type: cell-based, human
# 8226/S myeloma cells = details: read-out: IC50, nM (Mean ± SEM), 72h, MTT
# [3] = test system: 8226/IM10 myeloma cells (imexon-resistant); details: read-out: IC50, nM (Mean ± SEM); 8226/IM10, 72h, MTT
# [4] = test system: 8226/Dox40 myeloma cells (MDR-1 overexpressing); details: read-out: IC50, nM (Mean ± SEM); 8226/Dox40, 72h, MTT
# NIH-H929 myeloma cells = details: read-out: IC50, nM (Mean ± SEM); NIH-H929, 72h, MTT
# MM.1S myeloma cells = details: read-out: IC50, nM (Mean ± SEM), 72h, MTT
# U266 myeloma cells = details: read-out: IC50, nM (Mean ± SEM); U266, 72h, MTT
# OCI-AML3 leukemia cells = details: read-out: IC50, nM (Mean ± SEM); OCI-AML3, 72h, MTT
# MV-4-11 leukemia cells = details: read-out: IC50, nM (Mean ± SEM); MV-4-11, 72h, MTT
# [5] = test system: MiaPaCa-2 pancreatic cells; details: read-out: IC50, nM (Mean ± SEM); MiaPaCa-2, 72h, MTT
# Panc-1 pancreatic cells = details: read-out: IC50, nM (Mean ± SEM); Panc-1, 72h, MTT
# BxPC-3 pancreatic cells = details: read-out: IC50, nM (Mean ± SEM); BxPC-3, 72h, MTT
# MDA-MB231 breast cells = details: read-out: IC50, nM (Mean ± SEM); MDA-MB231, 72h, MTT
# MCF-7 breast cells = details: read-out: IC50, nM (Mean ± SEM); MCF-7, 72h, MTT
# PC-3 prostate cells = details: read-out: IC50, nM (Mean ± SEM); PC-3, 72h, MTT
# DU-145 prostate cells = details: read-out: IC50, nM (Mean ± SEM); DU-145, 72h, MTT
# HCT-116 colon cells = details: read-out: IC50, nM (Mean ± SEM); HCT-116 parental, 72h, MTT
# [6] = test system: HCT-116 DPC4 (−/−) colon cells
# [7] = test system: H69S small cell lung cancer cells; details: read-out: IC50, nM (Mean ± SEM), 72h, MTT
# [8] = test system: H929 multiple myeloma cells; details: H929, 24h, 25-100 nM
# [9] = test system: MM.1S multiple myeloma cells; details: 24h, 25-100 nM
# [10] = test system: U266 multiple myeloma cells; details: U266, 24h, 25-100 nM
# [11] = test system: 8226/S multiple myeloma cells; details: 24h, 25-100 nM
# [12] = test system: 8226/S multiple myeloma cells
# [13] = test system: MM.1S multiple myeloma cells
# [14] = test system: OCI-AM-3 (Acute Myeloid Leukemia) human tumor xenograft; details: 55 mg/kg IP, Dailyx5, off 5d, repeat 1×
# [15] = test system: MV-4-11 (Acute Myeloid Leukemia) human tumor xenograft; details: 55 mg/kg IP, Dailyx5, off 5d, repeat 2×
# [16] = test system: DU-145 (Prostate Cancer) human tumor xenograft; details: 55 mg/kg IP, Dailyx5, off 7d, repeat 2×
# [17] = test system: PC-3 (Prostate Cancer) human tumor xenograft; details: 55 mg/kg IP, Dailyx5, off 5d, repeat 1×
# [18] = 50–55 mg/kg IP, daily × 5 days, 5 to 7 days off, 2–3 courses
# [19] = SCID mice; for AUC: variance per Yuan in brackets
# [20] = not given; remark: listed apart in the source
# [21] = test system: DPC4 (-/-) BxPC3 pancreatic cancer cell line vs DPC4 (+/+) isogenic cell line; details: cited from earlier work
# [22] = test system: human MiaPaCa-2 pancreatic cancer cell line xenograft; details: SCID mice bearing MiaPaCa-2 flank tumors; cited from earlier work
# TRK-B = details: at pharmacologically-achievable concentrations; cited from earlier work
# PDGF-alpha = details: at pharmacologically-achievable concentrations; cited from earlier work
# PDGF-beta = details: at pharmacologically-achievable concentrations; cited from earlier work
# FLT-1 = details: FLT-1, at pharmacologically-achievable concentrations; cited from earlier work
# [23] = test system: human pancreatic cancer cells; details: cited from earlier work
# [24] = test system: 8226/S (Multiple Myeloma) human tumor xenograft; test: Xenograft efficacy, 8226/S; details: 50 mg/kg IP
# [25] = test system: caspases 3, 8 and 9 in MM.1S cells; test: Western blot of caspases 3, 8 and 9; details: 24h, 0 – 500 nM
# 8226/Dox40 cell line = details: no reference given; cited from earlier work
# [26] = 200 nM PC-046 24h, without active caspase inhibitor
# [27] = 5 μM pan-caspase inhibitor 30m before 200 nM PC-046 24h
# [28] = colcemid-treated, concentration not given
# [29] = 5 μM caspase 8 inhibitor 30m before 200 nM PC-046 24h
compound,measurement,setting,value
"COc1ccc(-c2cnc(-c3ccncc3-c3cccc(OC)c3)o2)cc1 [PC-046, 5-(4-methoxyphenyl)pyridine-4-yl]",effect on tubulin polymerization,tubulin; 5 μM,inhibits tubulin polymerization
same,AnnexinV-positive cells,[1]; [26],30.7%
same,AnnexinV-positive cells,[2]; [26],32.6%
same,IC50,8226/S myeloma cells,134 ± 13.8 nM
same,IC50,[3],102 ± 27.5 nM
same,IC50,[4],188 ± 6.1 nM
same,IC50,NIH-H929 myeloma cells,163 ± 13.9 nM
same,IC50,MM.1S myeloma cells,162 ± 39.6 nM
same,IC50,U266 myeloma cells,70.1 ± 16.2 nM
same,IC50,OCI-AML3 leukemia cells,177 ± 31.8 nM
same,IC50,MV-4-11 leukemia cells,193 ± 10.8 nM
same,IC50,[5],296 ± 72.1 nM
same,IC50,Panc-1 pancreatic cells,215 ± 49.4 nM
same,IC50,BxPC-3 pancreatic cells,199 ± 48.2 nM
same,IC50,MDA-MB231 breast cells,206 ± 49.2 nM
same,IC50,MCF-7 breast cells,166 ± 26.3 nM
same,IC50,PC-3 prostate cells,105 ± 30.2 nM
same,IC50,DU-145 prostate cells,160 ± 39.4 nM
same,IC50,HCT-116 colon cells,99.5 ± 15.8 nM
same,increased activity for the DPC4 (-/-) HCT-116 cell line compared to the wild type HCT-116 cells,[6]; ratio of IC50 values,roughly 2 fold
same,IC50,"[6]; read-out: IC50, nM (Mean ± SEM), HCT-116 DPC4 (−/−), 72h, MTT",52 ± 5.3 nM
same,IC50,[7],240 ± 10.9 nM
same,cell cycle effect (DNA content),[8],accumulation of cells in the G2/M-phase
same,cell cycle effect (DNA content),[9],accumulation of cells in the G2/M-phase
same,cell cycle effect (DNA content),[10],accumulation of cells in the G2/M-phase
same,cell cycle effect (DNA content),[11],significant accumulation of cells in S-phase
same,"% positive histone H3 cells, mean (SEM)","[12]; 150 nM PC-046, 16h, baseline 3.31 (0.14)",34.70 (5.84) %
same,"% positive histone H3 cells, mean (SEM)","[13]; 150 nM PC-046, 16h, baseline 3.14 (0.15)",17.3 (1.28) %
same,"Mean (SD), mm^3, DPC046 (tumor AUC)",[14]; control 17752.6 (8665.6),12433.4 (4647.1) mm^3
same,Tumor AUC % Change,"[14]; vs control, p NS",−29.90%
same,"Mean (SD), mm^3, DPC046 (tumor AUC)",[15]; control 18702.7 (7654.1),11309.3 (5293.3) mm^3
same,Tumor AUC % Change,"[15]; vs control, p 0.0374",−39.50%
same,"Mean (SD), mm^3, DPC046 (tumor AUC)",[16]; control 69969.6 (22735.3),45801.8 (23344.4) mm^3
same,Tumor AUC % Change,"[16]; vs control, p 0.04886",−34.50%
same,"Mean (SD), mm^3, DPC046 (tumor AUC)",[17]; control 10438.6 (4303.9),8238.1 (2506.2) mm^3
same,Tumor AUC % Change,"[17]; vs control, p NS",−21.10%
same,lethality,[18],no lethality
same,loss of body weight,[18],about 10%
same,lethal acute dose,"mouse, in vivo",150 mg/kg
same,time to death after administration,"mouse, in vivo, 150 mg/kg",2 to 5 days
same,acutely tolerated dose,"single dose, non-tumor bearing mice",100 mg/kg
same,Cmax,[19]; 100mg/kg IP,4.01 µg/mL
same,T ½,[19]; 100mg/kg IP,5.17 h
same,Tmax,[19]; 100mg/kg IP,4.8 min
same,AUC,[19]; 100mg/kg IP,5.22(0.68) ^# hr* μg/mL
same,Clearance,[19]; 100mg/kg IV,19.9 L/h/kg
same,Cmax,[19]; 100mg/kg IV,1.66 µg/mL
same,T ½,[19]; 100mg/kg IV,8.40 h
same,Tmax,[19]; 100mg/kg IV,10.2 min
same,Vol. Dist.,[19]; 100mg/kg IV,240.3 L/kg
same,AUC,[19]; 100mg/kg IV,5.02 (0.29) ^# hr* μg/mL
same,F (bioavailabilty),[19]; 100mg/kg PO vs IV,0.71
same,Cmax,[19]; 100mg/kg PO,1.55 µg/mL
same,T ½,[19]; 100mg/kg PO,3.17 h
same,Tmax,[19]; 100mg/kg PO,4.8 min
same,AUC,[19]; 100mg/kg PO,3.55(0.75) ^# hr* μg/mL
same,oral bioavailability,[19]; 100 mg/kg oral gavage compared to the IV route,71%
same,mean PC-046 concentrations in the femurs (bone marrow flushings),[20]; 30 and 60 minutes after 100 mg/kg IP,approximately 0.07 μg/mL
same,femur concentrations,"[20]; 30 and 60 minutes after 100 mg/kg IP, converted",195 nM
same,mean plasma concentration,[20]; 30 minutes after 100 mg/kg IP,1.75 µg/mL
same,mean plasma concentration,[20]; 45 minutes after 100 mg/kg IP,1.93 µg/mL
same,mean plasma concentration,[20]; 60 minutes after 100 mg/kg IP,0.962 µg/mL
same,selectivity index previously reported,[21],1.74 x
same,activity against flank tumor xenografts,[22],active
same,kinase inhibition in vitro,TRK-B,inhibit
same,kinase inhibition in vitro,PDGF-alpha,inhibit
same,kinase inhibition in vitro,PDGF-beta,inhibit
same,kinase inhibition in vitro,FLT-1,inhibit
same,cell cycle effect,[23],accumulate in G2/M phases
same,tumor growth inhibition in vivo (in words),[24]; 8226/S myeloma xenograft,no growth inhibition was observed
same,"Mean (SD), mm^3, DPC046 (tumor AUC)","[24]; 8226/S, Every third day, repeat 10×, control 27292.6 (13688.8)",28516.9 (9067.3) mm^3
same,Tumor AUC % Change,"[24]; 8226/S, Every third day, repeat 10×, vs control, p NS",+4.5%
same,caspase activation by western blot,[25],"cleavage of three major caspases, 3, 8, and 9"
CC(C)[C@H](NC(=O)c1ccc2ccccc2n1)C(=O)N[C@@H](CC(=O)O)C(=O)COc1c(F)cccc1F [Q-VD-OPh],AnnexinV-positive cells,[1]; [27],13.5%
same,AnnexinV-positive cells,[2]; [27],12.8%
"CN[C@H]1CCc2cc(OC)c(OC)c(OC)c2-c2ccc(OC)c(=O)cc21 [colcemid, reference compound]","% positive histone H3 cells, mean (SEM)",[12]; [28],39.40 (1.48) %
same,"% positive histone H3 cells, mean (SEM)",[13]; [28],12.54 (0.73) %
CC(=O)O[C@H]1C(=O)[C@@]2(C)[C@H]([C@H](OC(=O)c3ccccc3)[C@]3(O)C[C@H](OC(=O)[C@H](O)[C@@H](NC(=O)c4ccccc4)c4ccccc4)C(C)=C1C3(C)C)[C@]1(OC(C)=O)CO[C@@H]1C[C@@H]2O [paclitaxel],effect on tubulin polymerization,tubulin; 10 μM,stabilized tubulin polymerization
CC[C@]1(O)C[C@H]2CN(CCc3c([nH]c4ccccc34)[C@@](C(=O)OC)(c3cc4c(cc3OC)N(C=O)[C@H]3[C@@](O)(C(=O)OC)[C@H](OC(C)=O)[C@]5(CC)C=CCN6CC[C@]43[C@@H]65)C2)C1 [vincristine],effect on tubulin polymerization,tubulin; 10 μM,a reduction in the amount of tubulin polymer formed
same,resistance conferred by ABCB1 (Pgp/MDR1),8226/Dox40 cell line,approximately 200 fold
Cbz-IETD-CH2F,AnnexinV-positive cells,[1]; [29],25.1%
same,AnnexinV-positive cells,[2]; [29],32.6%
